Test results as given in patent publication US11759496B2, “Compounds and pharmaceutical use thereof in the treatment of cancer” (priority 2016, dated 2023).
Entries after “also recorded” stand apart in the source; their conditions may differ. Like-named read-outs stand apart in the source and are kept apart here. Non-standard residues stand in square brackets, D forms with d. Residues, ends and D or L forms follow the SMILES beside them. No end group written: not given here. *: point of attachment. NMeR = CN[C@@H](CCCNC(=N)N)C(=O)O; X1 = N=C(N)NCCC[C@H](CN)C(=O)*; β3hK = NCCCC[C@H](N)CC(=O)O; Nle = CCCC[C@H](N)C(=O)O

What was measured:
[1] = target: T1, CD47 (membrane preparation from MEC-1 cells) (Homo sapiens, UniProt Q08722); assay: Binding affinity by biolayer interferometry (Octet RED96) on biotinylated MEC-1 cell membrane preparation; conditions: NPD = Non Pertinent Data
T1 construct: MEC-1 cell membrane preparation were biotinylated with the EZ-Link NHS-PEG4-Biotin kit; endogenous in cells; host or cells: MEC-1 cells (membrane preparation)
T1 sequence (Q08722 19-323): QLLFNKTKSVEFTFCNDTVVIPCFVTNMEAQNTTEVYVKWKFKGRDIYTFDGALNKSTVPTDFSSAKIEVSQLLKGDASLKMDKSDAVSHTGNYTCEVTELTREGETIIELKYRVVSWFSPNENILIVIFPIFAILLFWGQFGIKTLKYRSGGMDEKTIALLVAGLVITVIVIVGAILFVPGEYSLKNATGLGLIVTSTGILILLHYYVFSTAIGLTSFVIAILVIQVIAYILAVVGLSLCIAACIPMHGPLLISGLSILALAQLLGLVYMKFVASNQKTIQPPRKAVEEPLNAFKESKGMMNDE
Method: The binding affinities of peptides for a membrane preparation from MEC-1 cells were measured by biolayer interferometry on an Octet RED96 System (Pall FortéBio Corp., Menlo Park, Calif.).
The binding affinities of peptides for a membrane preparation from MEC-1 cells were measured by biolayer interferometry on an Octet RED96 System (Pall FortéBio Corp., Menlo Park, Calif.). This system monitors interference of light reflected from two sources (an internal reflection surface and the liquid/solid interface of a fiber optic sensor) to measure the rate of binding of molecules to the biosensor surface.
MEC-1 cell membrane preparation were biotinylated with the EZ-Link NHS-PEG4-Biotin kit from Thermo-Scientific. Biotinylated membranes were then loaded onto SuperStreptavidin (SSA) biosensors (Pall FortéBio Corp.) at empirically determined concentrations.
In order to highlight the pharmacological properties of these peptides, a systematic SAR study by the development of a binding assay allowing to the assessment of the affinity of the 4N1K analogues to CD47 was initiated. […] An Ala-scan to identify the pharmacophores of 4N1K was implemented.
The binding affinities of peptides for a MEC-1 cells membrane preparation were measured by biolayer interferometry on an Octet RED96 System (Pall FortéBio Corp., Menlo Park, Calif.). This system monitors interference of light reflected from two sources (an internal reflection surface and the liquid/solid interface of a fiber optic sensor) to measure the rate of binding of molecules to the biosensor surface. MEC-1 cells membrane preparation is biotinylated with the EZ-Link NHS-PEG4-Biotin kit from Thermo-Scientific and excess biotin is removed using desalting column from Thermo-Scientific. Biotinylated membranes are then loaded onto SuperStreptavidin (SSA) biosensors (Pall FortéBio Corp.) at empirically determined concentrations. […] Typically, the biosensors were pre-equilibrated in PBS containing either biotinylated membranes or biocytine 100 μg/mL. Biosensors are then equilibrated in assay buffer for 10 min, brought to baseline in assay buffer for 60 sec. and transferred to wells containing peptide in dose-response (association for 120 sec. and dissociation for 300 sec.). The double reference with either membrane-loaded biosensors without any peptide dose-response or biocytine-loaded biosensors with each peptide dose-response were run in parallel for background signal double subtractions. Binding kinetics were calculated using the FortéBio Data Analysis v8.2 software.

MEC-1 cells = assay: MEC-1 cell death (PCD) after 2 h peptide treatment; assay type: cell-based; conditions: for MEC-1 Cell Death (%) 2 h: Table 2, NPD = Non Pertinent Data; for MEC-1 Cell Death (%) 2 h, [peptides] = 200 μM: Table 3, 200 μM peptide; for Cell Death (MEC-1, 2 h): Table 4
Method: Then the peptides structures were tested via NMR and X-ray. The peptides were also tested for their activity on MEC-1 and their KDs and Retention times on LCMS were determined.

[2] = target: T2, CD47 (NT.115-labeled membrane) (Homo sapiens, UniProt Q08722); assay: Binding affinity by microscale thermophoresis (MST), NT.115-labeled membrane; conditions: Table 2; average of at least three independent experiments; NPD = Non Pertinent Data
T2 construct: the concentration of the NT.115-labeled membrane was kept constant; endogenous in cells
T2 sequence (Q08722 19-323): as above
Method: For all experiments the concentration of the NT.115-labeled membrane was kept constant, while the concentrations of the ligand (peptide) was varied. After a short incubation time (5 min) the samples were loaded into MST premium glass capillaries and the MST analysis was performed using the Monolith NT.115.

[3] = Solubility of the peptides in water / aqueous buffer (NMR, CD samples); assay type: physicochemical; conditions: for solubility of peptide (in words): aqueous buffer, NMR / CD samples
Method: CD spectra were recorded on a Jasco 815 spectropolarimeter (Jasco Inc., Easton, Md.) over the wavelength range 190-260 nm, at 0.2 nm intervals and 10 nm·min^−1 scan speed. Peptides were dissolved at 50 μM concentration in a 10 mM sodium phosphate buffer at pH 7.4, using 0.1 cm path length quartz cells (Hellma, Mullheim, Germany). CD spectra were deconvoluted with CDFriend program in order to estimate the peptide secondary structure content.
NMR experiments were recorded on a 500 MHz Bruker Avance III spectrometer (Wissembourg, France) equipped with a TCI cryoprobe. NMR samples were prepared in 50 mM sodium succinate buffer, pH 5, using 2 mM peptide concentration. Sodium 2,2-dimethyl-2-silapentane-d6-5-sulfonate (Sigma Aldrich) was added at 0.1 mM concentration for chemical shift calibration and measurement of the solubilized peptide concentration. NMR experiments were processed with TOPSPIN 2.1 software (Bruker) and spectra were analyzed with Sparky program. ^1H, ^13C and ^15N resonances were assigned using 2D ^1H-^1H TOCSY (DIPSI2 isotropic scheme of 70 ms duration), 2D ^1H-^1H ROESY (300 ms mixing time), 2D ^1H-^13C HSQC, 2D ^1H-^15N HSQC, and 2D ^1H-^13C HMBC spectra. The complete ^1H, ^13C and ^15N NMR assignments of peptides 4N1K, PKT2, PKHB1 and 4NGG are provided in Tables S1-S4 (supporting information). […] The chemical shift deviations of Ha protons and Cα carbons were calculated as the differences between observed chemical shifts and random coil values reported in water. The conformational analysis of thrombospondin-1 was carried out on the crystal structure of a C-terminal fragment of human thrombospondin-1 using Pymol (Schrödinger) and Procheck programs. Predictions of NMR chemical shifts on the X-ray structure were carried out using SHIFTX2 program.

[4] = system: B-chronic lymphocytic leukemia (CLL) primary cells; conditions: WO 2013/182650, cited from earlier work; for induction of PCD: soluble peptide
[5] = Table 2, average of at least three independent experiments
[6] = Table 3, average of two or more measurements
[7] = Table 2, average of at least three independent experiments, read-out: Kd (μM) (OR)
[8] = Table 3, average of two or more measurements, read-out: Kd

Molecule: CSCC[C@H](NC(=O)[C@@H](NC(=O)[C@@H](NC(=O)[C@H](Cc1ccc(O)cc1)NC(=O)[C@H](Cc1ccccc1)NC(=O)[C@@H](CN)CCCNC(=N)N)C(C)C)C(C)C)C(=O)N[C@@H](Cc1c[nH]c2ccccc12)C(=O)N[C@@H](CCCCN)CC(=O)O [compound 3, (β^2hR)FYVVMW(β^3hK)] (X1-FYVVMW[β3hK]-OH)
- Kd (μM) (OR) [1, 5]: NPD
- MEC-1 Cell Death (%) 2 h (MEC-1 cells): NPD
- Kd (μM) (MST) [2]: NPD
- solubility of peptide (in words) [3]: poorly soluble

Molecule: CSCC[C@H](NC(=O)[C@@H](NC(=O)[C@@H](NC(=O)[C@H](Cc1ccc(O)cc1)NC(=O)[C@H](Cc1ccccc1)NC(=O)[C@H](CCCNC(=N)N)NC(C)=O)C(C)C)C(C)C)C(=O)N[C@@H](Cc1c[nH]c2ccccc12)C(=O)N[C@@H](CCCCN)C(N)=O [compound 1]
- MEC-1 Cell Death (%) 2 h (MEC-1 cells): 27%
- solubility of peptide (in words) ([3]; listed as PKT1): least soluble; also recorded: poorly soluble

Molecule: CCCC[C@H](NC(=O)[C@@H](NC(=O)[C@@H](NC(=O)[C@H](Cc1ccccc1)NC(=O)[C@H](Cc1ccccc1)NC(=O)[C@H](CCCNC(=N)N)N(C)C(=O)[C@H](N)CCCCN)C(C)C)C(C)C)C(=O)N[C@@H](Cc1c[nH]c2ccccc12)C(=O)N[C@@H](CCCCN)C(=O)N[C@H](CCCCN)C(=O)O [PKT16-FF, H-(D)K ψ(CONMe)R F F V V X W K (D)K-OH] (H-[dK][NMeR]FFVV[Nle]WK[dK]-OH)
- solubility in water ([3]; water): low solubility in water

Molecule: CSCC[C@H](NC(=O)[C@@H](NC(=O)[C@@H](NC(=O)[C@H](Cc1ccc(O)cc1)NC(=O)[C@H](Cc1ccccc1)NC(=O)[C@@H](N)CCCNC(=N)N)C(C)C)C(C)C)C(=O)N[C@@H](Cc1c[nH]c2ccccc12)C(=O)N[C@@H](CCCCN)C(=O)O [4N1, reference compound]
- Kd (μM) (OR) [1, 5]: NPD
- MEC-1 Cell Death (%) 2 h (MEC-1 cells): 13%
- solubility of peptide (in words) [3]: least soluble; also recorded: poorly soluble

Molecule: CSCC[C@H](NC(=O)CNC(=O)CNC(=O)[C@H](Cc1ccc(O)cc1)NC(=O)[C@H](Cc1ccccc1)NC(=O)[C@H](CCCNC(=N)N)NC(=O)[C@@H](N)CCCCN)C(=O)N[C@@H](Cc1c[nH]c2ccccc12)C(=O)N[C@@H](CCCCN)C(=O)N[C@@H](CCCCN)C(=O)O [4NGG, reference compound] (H-KRFYGGMWKK-OH)
- induction of PCD [4]: unable to induce PCD
- Kd (μM) (OR) [1, 5]: NPD
- MEC-1 Cell Death (%) 2 h (MEC-1 cells): 2%
- Kd (μM) (MST) [2]: NPD

Molecule: CSCC[C@H](NC(=O)[C@@H](NC(=O)[C@@H](NC(=O)[C@H](Cc1ccc(O)cc1)NC(=O)[C@H](C)NC(=O)[C@H](CCCNC(=N)N)NC(=O)[C@H](N)CCCCN)C(C)C)C(C)C)C(=O)N[C@@H](Cc1c[nH]c2ccccc12)C(=O)N[C@@H](CCCCN)C(=O)N[C@H](CCCCN)C(=O)O [F3/A, kR(A)YVVMWKk] (H-[dK]RAYVVMWK[dK]-OH; N-terminus and C-terminus assumed)
- Kd (μM) [1, 6]: NPD
- MEC-1 Cell Death (%) 2 h, [peptides] = 200 μM (MEC-1 cells): 6%

Molecule: CSCC[C@H](NC(=O)[C@@H](NC(=O)[C@@H](NC(=O)[C@H](Cc1ccc(O)cc1)NC(=O)[C@H](Cc1ccccc1)NC(=O)[C@H](CCCNC(=N)N)NC(=O)[C@H](N)CCCCN)C(C)C)C(C)C)C(=O)N[C@@H](Cc1c[nH]c2ccccc12)C(=O)N[C@@H](CCCCN)C(=O)N[C@H](CCCCN)C(=O)O [PKHB1, reference compound]
- selective elimination of leukemic B-cells versus healthy B-lymphocytes [4]: specifically eliminates leukemic B-cells
- Kd [1, 7]: 43 ± 21 µM
- Kd [1, 8]: 43 ± 21 µM
- MEC-1 Cell Death (%) 2 h (MEC-1 cells): 63%
- MEC-1 Cell Death (%) 2 h, [peptides] = 200 μM (MEC-1 cells): 63%
- Cell Death (MEC-1, 2 h) (MEC-1 cells): 78%

Molecule: CSCC[C@H](NC(=O)[C@@H](NC(=O)[C@@H](NC(=O)[C@H](Cc1ccc(O)cc1)NC(=O)[C@H](Cc1ccccc1)NC(=O)[C@H](CCCNC(=N)N)NC(=O)[C@H](N)CCCCN)C(C)C)C(C)C)C(=O)N[C@@H](C)C(=O)N[C@@H](CCCCN)C(=O)N[C@H](CCCCN)C(=O)O [W8/A, kRFYVVM(A)Kk] (H-[dK]RFYVVMAK[dK]-OH; N-terminus and C-terminus assumed)
- Kd (μM) [1, 6]: NPD
- MEC-1 Cell Death (%) 2 h, [peptides] = 200 μM (MEC-1 cells): 35%

Molecule: kRF(A)VVMWKk ([dK]RFAVVMWK[dK]) [Y4/A]
- Kd (μM) [1, 6]: NPD
- MEC-1 Cell Death (%) 2 h, [peptides] = 200 μM (MEC-1 cells): 0%

Molecule: CSCC[C@H](NC(=O)[C@@H](NC(=O)[C@@H](NC(=O)[C@H](Cc1ccc(O)cc1)NC(=O)[C@H](Cc1ccccc1)NC(=O)[C@H](CCCNC(=N)N)NC(=O)[C@@H](N)CCCCN)C(C)C)C(C)C)C(=O)N[C@@H](Cc1c[nH]c2ccccc12)C(=O)N[C@@H](CCCCN)C(=O)N[C@@H](CCCCN)C(=O)O [4N1K, reference compound]
- selective elimination of leukemic B-cells versus healthy B-lymphocytes [4]: specifically eliminates leukemic B-cells
- induction of PCD [4]: induces caspase-independent PCD
- Kd [1, 7]: 19 ± 1.6 µM
- Kd [1, 8]: 19 ± 1.6 µM
- MEC-1 Cell Death (%) 2 h (MEC-1 cells): 23%
- MEC-1 Cell Death (%) 2 h, [peptides] = 200 μM (MEC-1 cells): 23%

Molecule: H-(D)K R F Y V V ψ(CONMe)M W K (D)K-OH (KRFYVVMWKK; D-residues, N-methyl amide bond; (1)..(1) Amino acid at position 1 is in the D-configuration; (7)..(7) Amino acid at position 7 is backbone-N- …ON of the Methionine; (10)..(10) Amino acid at position 10 is in the D-configuration) [PKT13]
- Kd(μM)PR ([1]; Table 4, N-methyl peptides): NPD
- Cell Death (MEC-1, 2 h) (MEC-1 cells): 0%
